Laboratory results: US20130023540A1, “TREATMENT OF MASTITIS” (BAYER HEALTHCARE AG, priority 2004, published 2013)

Test: investigation of the substances having an antibacterial effect in bovine milk following parenteral administration of enrofloxacin
Type: in vivo

Row | Compound | proportion in the milk [%] | antibacterial activity in bovine milk (enrichment of active compounds as compared with the serum concentration)
1 | O=C(O)c1cn(C2CC2)c2cc(N3CCNCC3)c(F)cc2c1=O [ciprofloxacin, 1-cyclopropyl-7-(1-piperazinyl)-6-fluoro-1,4-dihydro-4-oxo-3-quinolonecarboxylic acid] | ~90 | –
2 | CCN1CCN(c2cc3c(cc2F)c(=O)c(C(=O)O)cn3C2CC2)CC1 [enrofloxacin, 1-cyclopropyl-7-(4-ethyl-1-piperazinyl)-6-fluoro-1,4-dihydro-4-oxo-3-quinolone-carboxylic acid] | ~10 | high antibacterial activity
